Counter-ions that a name gives are not always drawn.

Data set [1] in a line: Encapsulation of mRNA nanoparticles with lipid amines using Ribogreen assay. The class given is physicochemical. Summed up:
(§1)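 DLS gave size and PDI, and Ribogreen gave encapsulation, for luciferase- or CFTR-mRNA nanoparticles (N:P 4.93). Particles came from IL1/DSPC/cholesterol/PEG-DMG-2K mixed at pH 4, mRNA-loaded, neutralized with TRIS pH 8.12, and then treated with lipid amine SA50 in pH 7.5 buffer.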

In data set [2] the test system is HeLa cells. Put plainly: CFTR Protein Expression Assay in HeLa Cells. Particulars: LNPs encapsulating CFTR mRNA, N=4 wells; 5 h serum-free then 24 h; immunofluorescence vs PBS control. The class given is cell-based, Human. Summed up: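 Readout is fold-change in per-cell CFTR immunofluorescence intensity (488 nm, confocal imaging) relative to PBS-treated cells, from 4 replicate wells. LNPs encapsulating CFTR mRNA were applied serum-free for 5 h, followed by 24 h in complete medium before PFA fixation.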

The subject of data set [3] is HeLa cells. Put plainly: Luciferase Protein Expression Assay in HeLa Cells. The class given is cell-based, Human. The settings on record: LNPs encapsulating Luciferase mRNA, 25 ng per well, N=4 wells; 5 h serum-free then 24 h; ONE-Glo. In outline:
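Luminescence output, average RLU across N=4 wells, was measured with ONE-Glo after cell lysis. Before that, HeLa cells were exposed to 25 ng/well luciferase-mRNA nanoparticles (PBS control) for 5 h serum-free, then cultured overnight (24 h) in complete MEM.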

A short description of data set [4]: Diameter and PDI from DLS measurements of mRNA nanoparticles with lipid amines. The class given is physicochemical. Summed up: as §1
Where [5] appears, read: CFTR mRNA nanoparticle with lipid amine.
Setting [6] is: Luciferase mRNA nanoparticle modified with lipid amine.

Turning to `CC(C)CCC[C@@H](C)[C@H]1CC[C@H]2[C@@H]3CC=C4C[C@@H](OC(=O)N(CCCC(C)(C)N)CCC(C)(C)N)CC[C@]4(C)[C@H]3CC[C@]12C` [SA157, (3S,8S,9S,10R,13R,14S,17R)-10,13-dimethyl-17-((R)-6-methylheptan-2-yl)-2,3,4,7,8,9,10,11,12,13,14,15,16,17-tetradecahydro-1H-cyclopenta[a]phenanthren-3-yl (3-amino-3-methylbutyl)(4-amino-4-methylpentyl)carbamate dihydrochloride], the entries for the “% Encapsulation (Ribogreen)” value in data set [1] (setting [5]) and in data set [1] (setting [6]) were 99.8% and 99.6%, respectively. In addition, the “Average fold-change in CFTR signal intensity per cell compared to buffer control ± standard deviation” value in the data set on HeLa cells [2] came to 15.9 ± 1.4 fold-change. Further, the “Average Relative Light Units ± Standard Deviation” value in the data set with HeLa cells [3] is reported as 24130.4 ± 4741.7 Relative Light Units. Moreover, the entries for the “Diameter (nm)” value in data set [4] (setting [5]) and in data set [4] (setting [6]) were 73.9 nm and 75 nm, respectively. In addition, the results for the PDI in data set [4] (setting [5]) and in data set [4] (setting [6]) were 0.16 and 0.13, respectively.

For `CC(C)CCC[C@@H](C)[C@H]1CC[C@H]2[C@@H]3CC=C4C[C@@H](OC(=O)CCC(=O)N(CCCCCCCC(C)N)CCC(C)N)CC[C@]4(C)[C@H]3CC[C@]12C` (stereo partly drawn) [SA162, (3S,8S,9S,10R,13R,14S,17R)-10,13-dimethyl-17-((R)-6-methylheptan-2-yl)-2,3,4,7,8,9,10,11,12,13,14,15,16,17-tetradecahydro-1H-cyclopenta[a]phenanthren-3-yl 4-((3-aminobutyl)(8-aminononyl)amino)-4-oxobutanoate dihydrochloride], the “% Encapsulation (Ribogreen)” value in data set [1] (setting [5]) came out at 98.6%; in data set [1] (setting [6]), 99.4%. Further, the “Average fold-change in CFTR signal intensity per cell compared to buffer control ± standard deviation” value in the data set on HeLa cells [2] is reported as 21.3 ± 0.6 fold-change. In the data set with HeLa cells [3], the “Average Relative Light Units ± Standard Deviation” value is 34454.6 ± 3101.8 Relative Light Units. The “Diameter (nm)” value in data set [4] (setting [5]) stood at 75.4 nm; in data set [4] (setting [6]), 75 nm. Further, the PDI in data set [4] (setting [5]) stood at 0.16; in data set [4] (setting [6]), 0.15.

In the case of `CC(C)CCC[C@@H](C)[C@H]1CC[C@H]2[C@@H]3CC=C4C[C@@H](OC(=O)CCC(=O)N(CCCCCCCC(C)(C)N)CCC(C)(C)N)CC[C@]4(C)[C@H]3CC[C@]12C` [SA164, (3S,8S,9S,10R,13R,14S,17R)-10,13-dimethyl-17-((R)-6-methylheptan-2-yl)-2,3,4,7,8,9,10,11,12,13,14,15,16,17-tetradecahydro-1H-cyclopenta[a]phenanthren-3-yl 4-((3-amino-3-methylbutyl)(8-amino-8-methylnonyl)amino)-4-oxobutanoate dihydrochloride], the “% Encapsulation (Ribogreen)” value is recorded as 99.2% in data set [1] (setting [5]) and 98.0% in data set [1] (setting [6]). Besides, the “Average fold-change in CFTR signal intensity per cell compared to buffer control ± standard deviation” value in the data set with HeLa cells [2] stood at 16.2 ± 0.7 fold-change. Moreover, in the data set with HeLa cells [3], the “Average Relative Light Units ± Standard Deviation” value stood at 17129.2 ± 2374.1 Relative Light Units. The “Diameter (nm)” value came out at 72.5 nm in data set [4] (setting [5]) and 73 nm in data set [4] (setting [6]). In addition, the PDI in data set [4] (setting [5]) and in data set [4] (setting [6]) was 0.14 in each case.

`CCC(N)CCNCCCCN(CCC(N)CC)C(=O)O[C@H]1CC[C@@]2(C)C(=CC[C@H]3[C@@H]4CC[C@H]([C@H](C)CCCC(C)C)[C@@]4(C)CC[C@@H]32)C1.Cl.Cl.Cl` (stereo partly drawn) [SA127, (3S,8S,9S,10R,13R,14S,17R)-10,13-dimethyl-17-((R)-6-methylheptan-2-yl)-2,3,4,7,8,9,10,11,12,13,14,15,16,17-tetradecahydro-1H-cyclopenta[a]phenanthren-3-yl (3-aminopentyl)(4-((3-aminopentyl)amino)butyl)carbamate trihydrochloride]: the “% Encapsulation (Ribogreen)” value in data set [1] (setting [5]) is on record as 99.5%; in data set [1] (setting [6]) it was 99.7%. In addition, the “Average fold-change in CFTR signal intensity per cell compared to buffer control ± standard deviation” value in the data set on HeLa cells [2] was determined as 20.1 ± 1.9 fold-change. For the same compound, the “Average Relative Light Units ± Standard Deviation” value with HeLa cells [3] is listed as 41246.9 ± 5672.4 Relative Light Units. Moreover, the “Diameter (nm)” value in data set [4] (setting [5]) is recorded as 74.1 nm; in data set [4] (setting [6]), 74 nm. In addition, the PDI in data set [4] (setting [5]) is 0.12; in data set [4] (setting [6]) it was 0.17.

Consider `CC(C)CCC[C@@H](C)[C@H]1CC[C@H]2[C@@H]3CC=C4C[C@@H](OC(=O)N(CCCCNCC(F)CN)CC(F)CN)CC[C@]4(C)[C@H]3CC[C@]12C` (stereo partly drawn) [SA87, (3S,8S,9S,10R,13R,14S,17R)-10,13-dimethyl-17-((R)-6-methylheptan-2-yl)-2,3,4,7,8,9,10,11,12,13,14,15,16,17-tetradecahydro-1H-cyclopenta[a]phenanthren-3-yl (3-amino-2-fluoropropyl)(4-((3-amino-2-fluoropropyl)amino)butyl)carbamate trihydrochloride], for which the “% Encapsulation (Ribogreen)” value in data set [1] (setting [5]) came to 99.5%; in data set [1] (setting [6]), 98.2%. Also, the “Average fold-change in CFTR signal intensity per cell compared to buffer control ± standard deviation” value with HeLa cells [2] came out at 3.2 ± 0.1 fold-change. Moreover, in the data set with HeLa cells [3], the “Average Relative Light Units ± Standard Deviation” value is listed as 13346.1 ± 2590.8 Relative Light Units. For the same compound, the “Diameter (nm)” value in data set [4] (setting [5]) is on record as 81.2 nm; in data set [4] (setting [6]), 75 nm. Further, the PDI turned out to be 0.1 in data set [4] (setting [5]) and 0.18 in data set [4] (setting [6]).

As for `CC[C@H](CC[C@@H](C)[C@H]1CC[C@H]2[C@@H]3CC=C4C[C@@H](OC(=O)N(CCCN)CCCCCCN)CC[C@]4(C)[C@H]3CC[C@]12C)C(C)C` [SA84, (3S,8S,9S,10R,13R,14S,17R)-17-((2R,5R)-5-Ethyl-6-methylheptan-2-yl)-10,13-dimethyl-2,3,4,7,8,9,10,11,12,13,14,15,16,17-tetradecahydro-1H-cyclopenta[a]phenanthren-3-yl (6-aminohexyl)(3-aminopropyl)carbamate dihydrochloride], the results for the “% Encapsulation (Ribogreen)” value in data set [1] (setting [5]) and in data set [1] (setting [6]) were 99.5% and 99.9%, respectively. Besides, in the data set on HeLa cells [2], the “Average fold-change in CFTR signal intensity per cell compared to buffer control ± standard deviation” value came to 5.0 ± 0.2 fold-change. Further, the “Average Relative Light Units ± Standard Deviation” value in the data set on HeLa cells [3] is listed as 29639.9 ± 7554 Relative Light Units. For the same compound, the “Diameter (nm)” value in data set [4] (setting [5]) is recorded as 82 nm; in data set [4] (setting [6]), 74 nm. The PDI is given as 0.13 in data set [4] (setting [5]) and 0.16 in data set [4] (setting [6]).

As for `CC[C@H](CC[C@@H](C)[C@H]1CC[C@H]2[C@@H]3CC=C4C[C@@H](OC(=O)CCCC(=O)N(CCCCNCCC(C)N)CCC(C)N)CC[C@]4(C)[C@H]3CC[C@]12C)C(C)C.Cl.Cl.Cl` (stereo partly drawn) [SA136, (3S,8S,9S,10R,13R,14S,17R)-17-((2R,5R)-5-ethyl-6-methylheptan-2-yl)-10,13-dimethyl-2,3,4,7,8,9,10,11,12,13,14,15,16,17-tetradecahydro-1H-cyclopenta[a]phenanthren-3-yl 5-((3-aminobutyl)(4-((3-aminobutyl)amino)butyl)amino)-5-oxopentanoate trihydrochloride], the “% Encapsulation (Ribogreen)” value is 97.7% in data set [1] (setting [5]) and 99.7% in data set [1] (setting [6]). For the same compound, in the data set on HeLa cells [2], the “Average fold-change in CFTR signal intensity per cell compared to buffer control ± standard deviation” value worked out at 15.8 ± 1.4 fold-change. Besides, the “Average Relative Light Units ± Standard Deviation” value in the data set with HeLa cells [3] was 16245.8 ± 6554.6 Relative Light Units. The “Diameter (nm)” value was determined as 76.9 nm in data set [4] (setting [5]) and 75 nm in data set [4] (setting [6]). Further, the figures for the PDI in data set [4] (setting [5]) and in data set [4] (setting [6]) were 0.13 and 0.16, respectively.

As for `CC[C@H](CC[C@@H](C)[C@H]1CC[C@H]2[C@@H]3CC=C4C[C@@H](SSCCC(=O)N(CCCCCCCC(C)N)CCC(C)N)CC[C@]4(C)[C@H]3CC[C@]12C)C(C)C` (stereo partly drawn) [SA178, N-(3-aminobutyl)-N-(8-aminononyl)-3-(((3S,8S,9S,10R,13R,14S,17R)-17-((2R,5R)-5-ethyl-6-methylheptan-2-yl)-10,13-dimethyl-2,3,4,7,8,9,10,11,12,13,14,15,16,17-tetradecahydro-1H-cyclopenta[a]phenanthren-3-yl)disulfaneyl)propanamide dihydrochloride], the “% Encapsulation (Ribogreen)” value was 100% in data set [1] (setting [5]) and 98.8% in data set [1] (setting [6]). Besides, the “Average fold-change in CFTR signal intensity per cell compared to buffer control ± standard deviation” value in the data set on HeLa cells [2] is 9.8 ± 0.3 fold-change. Also, the “Average Relative Light Units ± Standard Deviation” value in the data set on HeLa cells [3] is 10196.5 ± 602.4 Relative Light Units. Also, the “Diameter (nm)” value amounted to 83 nm in data set [4] (setting [5]) and 75 nm in data set [4] (setting [6]). The PDI in data set [4] (setting [5]) worked out at 0.26; in data set [4] (setting [6]), 0.20.

Regarding `CC(C)CCC[C@@H](C)[C@H]1CC[C@H]2[C@@H]3CC=C4C[C@@H](OC(=O)CN(CCCCCCCCN)C(=O)[C@@H](N)CCCN)CC[C@]4(C)[C@H]3CC[C@]12C.Cl.Cl.Cl` [SA129, (3S,8S,9S,10R,13R,14S,17R)-10,13-dimethyl-17-((R)-6-methylheptan-2-yl)-2,3,4,7,8,9,10,11,12,13,14,15,16,17-tetradecahydro-1H-cyclopenta[a]phenanthren-3-yl N-(8-aminooctyl)-N-((S)-2,5-diaminopentanoyl)glycinate trihydrochloride], the “% Encapsulation (Ribogreen)” value is reported as 96.2% in data set [1] (setting [5]) and 99.5% in data set [1] (setting [6]). Moreover, in the data set on HeLa cells [2], the “Average fold-change in CFTR signal intensity per cell compared to buffer control ± standard deviation” value came to 1.0 ± 0 fold-change. In the data set on HeLa cells [3], the “Average Relative Light Units ± Standard Deviation” value was found to be 144.8 ± 21.6 Relative Light Units. Besides, the “Diameter (nm)” value in data set [4] (setting [5]) is given as 81.6 nm; in data set [4] (setting [6]), 70 nm. In addition, the PDI in data set [4] (setting [5]) is 0.12; in data set [4] (setting [6]), 0.16.

Values taken from patent US20260109732A1, “LIPID AMINES” (ModernaTX, Inc., priority 2021, published 2026).
